# Laboratory results: paper PMC7734798 (ACS Medicinal Chemistry Letters, 2020)
# What was measured:
# [1] = tested on: CNPase; assay: Oli-Neu differentiation marker CNPase expression (Western blot); assay type: cell-based, mouse; conditions: Oli-Neu cells, 5 μM, 72 h
# Text: OPC proliferation and migration to the CNS injury site as well as their differentiation are critical steps toward remyelination in MS. HDAC activity plays a crucial role in OPC proliferation/differentiation; therefore, HDAC modulation is widely considered a promising therapeutic target for MS.[30] […] Therefore, we tested the effect of our compounds on OPC proliferation and differentiation, through cell counting, measure of filaments, and analysis of proliferation/differentiation markers (Figure 7). […]
# After 24 hours, the viability was evaluated through the MTT assay. […]
# 48 hours, for cell counting and measure of filaments, 5 random images for each condition were acquired with an Eclipse TS100 (Nikon) microscope using a 10X objective. Cells number and filament length were measured with Fiji ImageJ2 software. After 48 hours for proliferation and 72 hours of treatment for differentiation analysis, cells were lysed in ice-cold lysis buffer (50 mM Tris-HCl pH 7.4, 1% SDS, 0.05% protease inhibitor cocktail; all from Sigma-Aldrich) and protein content was determined by using the Lowry method. […]
# [2] = tested on: primary rat cerebellar granule neurons (CGNs); assay: Neuroprotection assay: glutamate/glycine excitotoxicity in differentiated CGNs (MTT); assay type: cell-based; conditions: CGNs 8 DIV
# Protocol: Several lines of evidence point to MS as not only an inflammatory but also a neurodegenerative disease. Thus, neuroprotective agents may hold promise for MS therapy.[32] […] Thus, to test the neuroprotective capability of 1 and 2, we used a glutamate excitotoxicity model of primary cultural neurons. At day 8 in vitro (8 DIV), CGNs were pretreated with the compounds for 6 h, before adding 100 μM glutamate/10 μM glycine insult for further 24 h. […] Furthermore, while reference compounds (alone and in combination) increase glutamate/glycine excitotoxicity at higher doses, 1 was not toxic even at the highest concentration tested (25 μM). […]
# committee (Protocol n° 17-72-1212) and performed according to Italian and European Community laws on the use of animals for experimental purposes. […]
# heat-inactivated FBS (Aurogene), 2 mM glutamine, 100 μM gentamicin sulphate and 25 mM KCl (all from Sigma-Aldrich). […] The viability of CGNs exposed to increasing concentrations of the studied compounds (0, 5, 10 and 25 μM) for 24 h was evaluated through the MTT assay. […] Following a 20 min incubation at 37 °C in the dark, the MTT precipitate was dissolved in 0.1 M Tris-HCl pH 7.5 buffer containing 5% Triton X-100 (all from Sigma-Aldrich) and absorbance was read at 570 nm in a multiplate spectophotometric reader (Bio-Rad). […] After 24 hours, neuronal survival has been evaluated through MTT assay. […]
structure (smiles),measurement,setting,value
CC/C=C\C/C=C\C/C=C\CCCCCCCC(=O)NCCNC(=O)C(CCC)CCC [compound 1],"expression of CNPase, marker of differentiation",[1],significant increase
same,toxicity under glutamate/glycine excitotoxicity at higher doses,"[2]; 100 μM glutamate/10 μM glycine, highest concentration tested 25 μM",not toxic
same,neuroprotection against glutamatergic excitotoxicity (MTT),"[2]; 6 h pretreatment + 24 h with 100 μM glutamate/10 μM glycine, especially at 5 and 10 μM",more neuroprotective
